Target: T1, GST-RIPK1 (recombinant GST-RIPK1 kinase domain (residues 1-327)) (Homo sapiens, UniProt Q13546)
T1 construct: recombinant GST-RIPK1 kinase domain (residues 1-327) enzyme produced from baculovirus-transfected Sf21 cells; host or cells: baculovirus-transfected Sf21 insect cells
T1 sequence (Q13546 1-327): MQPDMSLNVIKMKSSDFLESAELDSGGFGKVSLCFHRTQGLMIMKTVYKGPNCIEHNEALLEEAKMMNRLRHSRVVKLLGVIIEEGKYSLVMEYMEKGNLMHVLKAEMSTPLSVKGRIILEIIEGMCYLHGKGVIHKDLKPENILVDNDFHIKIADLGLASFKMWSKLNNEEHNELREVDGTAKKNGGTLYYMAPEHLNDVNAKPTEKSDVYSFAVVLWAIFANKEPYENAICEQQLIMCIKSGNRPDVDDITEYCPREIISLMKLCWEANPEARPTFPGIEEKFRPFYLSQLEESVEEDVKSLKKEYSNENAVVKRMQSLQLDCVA
Experiment: RIPK1-ADP-Glo Enzymatic Assay
Format: biochemical
Details: ten-point titration, top compound concentration of 100000 nM; 25 nM GST-RIPK1, 300 μM ATP, 3 μM dephosphorylated-MBP; 30 min pre-incubation, 150 min reaction
Summary of the method: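 GST-RIPK1 kinase domain (residues 1-327, Sf21-expressed), 25 nM, preincubated 30 min with compound, then reacted 150 min with 300 μM ATP and 3 μM dephosphorylated MBP in pH 7.3 Hepes buffer, 1% DMSO. ADP measured by ADP-Glo luminescence; EC50 from ten-point titration (top 100000 nM), four-parameter fit.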

O=C1N2C(CC[C@H]2c2cnccn2)OC12CC(OCc1cncc(OCCF)c1)C2 (stereo partly drawn) [Example 18.77, (5′S)-3-{[5-(2-fluoroethoxy)pyridin-3-yl]methoxy}-5′-(pyrazin-2-yl)tetrahydro-3′H-spiro[cyclobutane-1,2′-pyrrolo[2,1-b][1,3]oxazol]-3′-one]
EC50: 0.174 µM

O=C1N2C(CC[C@H]2c2cnccn2)OC12CC(OCc1ccc3c(c1)CCO3)C2 (stereo partly drawn) [Example 18.92, (5′S)-3-[(2,3-dihydro-1-benzofuran-5-yl)methoxy]-5′-(pyrazin-2-yl)tetrahydro-3′H-spiro[cyclobutane-1,2′-pyrrolo[2,1-b][1,3]oxazol]-3′-one]
EC50: 0.243 µM

Cn1cc(C2CCC3OC4(CC(Oc5cc(C#N)ncn5)C4)C(=O)N32)cn1 (single isomer, unassigned) [Example 6.2, 6-((((1s or r),3R,5′(S or R),7a′R)-5′-(1-methyl-1H-pyrazol-4-yl)-3′-oxotetrahydro-3′H-spiro[cyclobutane-1,2′-pyrrolo[2,1-b]oxazol]-3-yl)oxy)pyrimidine-4-carbonitrile]
EC50: 99 µM

O=C1N2C(CC[C@H]2c2cnccn2)OC12CC(OCc1ccc(-c3ccon3)cc1)C2 (stereo partly drawn) [Example 18.80, (5′S)-3-{[4-(1,2-oxazol-3-yl)phenyl]methoxy}-5′-(pyrazin-2-yl)tetrahydro-3′H-spiro[cyclobutane-1,2′-pyrrolo[2,1-b][1,3]oxazol]-3′-one]
EC50: 0.045 µM

O=C1N2C(CCC2c2ccc(F)cn2)OC12CC(Oc1ncnn3cccc13)C2 (centres unmarked) [Example 9.65, 5′-(5-fluoropyridin-2-yl)-3-[(pyrrolo[2,1-f][1,2,4]triazin-4-yl)oxy]tetrahydro-3′H-spiro[cyclobutane-1,2′-pyrrolo[2,1-b][1,3]oxazol]-3′-one]
EC50: 0.013 µM

O=C1N2C(CC[C@H]2c2cnccn2)OC12CC(OCc1ccc3nc(C4CC4)cn3c1)C2 (stereo partly drawn) [Example 18.73, (5′S)-3-[(2-cyclopropylimidazo[1,2-a]pyridin-6-yl)methoxy]-5′-(pyrazin-2-yl)tetrahydro-3′H-spiro[cyclobutane-1,2′-pyrrolo[2,1-b][1,3]oxazol]-3′-one]
EC50: 0.111 µM

O=C1N2[C@@H](CC[C@H]2c2ccccc2)OC12CC(Oc1ccnc(Cl)c1)C2 (stereo partly drawn) [Example 8.11, (5′S,7a′R)-3-[(2-chloropyridin-4-yl)oxy]-5′-phenyltetrahydro-3′H-spiro[cyclobutane-1,2′-pyrrolo[2,1-b][1,3]oxazol]-3′-onee]
EC50: 0.032 µM

Cn1cc(COC2CC3(C2)OC2CC[C@@H](c4cnccn4)N2C3=O)cn1 (stereo partly drawn) [Example 18.5, (5′S)-3-[(1-methyl-1H-pyrazol-4-yl)methoxy]-5′-(pyrazin-2-yl)tetrahydro-3′H-spiro[cyclobutane-1,2′-pyrrolo[2,1-b][1,3]oxazol]-3′-one]
EC50: 0.307 µM

O=C1N2[C@@H](CC[C@H]2c2ccc(F)cc2)O[C@]12C[C@H](Oc1nccc3nccn13)C2 [Example 9.34, (1r,3R,5′S,7a′R)-5′-(4-fluorophenyl)-3-[(imidazo[1,2-c]pyrimidin-5-yl)oxy]tetrahydro-3′H-spiro[cyclobutane-1,2′-pyrrolo[2,1-b][1,3]oxazol]-3′-one]
EC50: 0.019 µM

N#CCc1cccc(COC2CC3(C2)OC2CC[C@@H](c4cnccn4)N2C3=O)c1 (stereo partly drawn) [Example 18.62, [3-({[(5′S)-3′-oxo-5′-(pyrazin-2 yl)tetrahydro-3′H-spiro[cyclobutane-1,2′-pyrrolo[2,1-b][1,3]oxazol]-3-yl]oxy}methyl)phenyl]acetonitrile]
EC50: 0.047 µM

O=C1N2C(CC[C@H]2c2cnccn2)OC12CC(OCc1ccc3cnccc3c1)C2 (stereo partly drawn) [Example 18.37, (5′S)-3-[(isoquinolin-6-yl)methoxy]-5′-(pyrazin-2-yl)tetrahydro-3′H-spiro[cyclobutane-1,2′-pyrrolo[2,1-b][1,3]oxazol]-3′-one]
EC50: 0.015 µM

N#Cc1ccoc1COC1CC2(C1)OC1CC[C@@H](c3cnccn3)N1C2=O (stereo partly drawn) [Example 18.55, 2-({[(5′S)-3′-oxo-5′-(pyrazin-2-yl)tetrahydro-3′H-spiro[cyclobutane-1,2′-pyrrolo[2,1-b][1,3]oxazol]-3-yl]oxy}methyl)furan-3-carbonitrile]
EC50: 0.126 µM

O=C1N2[C@@H](CC[C@H]2c2cnccn2)OC12CC(OCc1csc3ncccc13)C2 (stereo partly drawn) [Example 19.19, (5′S,7a′R)-5′-(pyrazin-2-yl)-3-[(thieno[2,3-b]pyridin-3-yl)methoxy]tetrahydro-3′H-spiro[cyclobutane-1,2′-pyrrolo[2,1-b][1,3]oxazol]-3′-one]
EC50: 0.027 µM

N#Cc1ccoc1COC1CC2(C1)OC1CC[C@@H](c3cnccn3)N1C2=O (stereo partly drawn) [Example 18.104, 2-({[(5′S)-3′-oxo-5′-(pyrazin-2-yl)tetrahydro-3′H-spiro[cyclobutane-1,2′-pyrrolo[2,1-b][1,3]oxazol]-3-yl]oxy}methyl)furan-3-carbonitrile]
EC50: 0.355 µM

O=C1N2[C@@H](CC[C@H]2c2cc(F)cc(F)c2)O[C@]12C[C@H](Oc1cc(-n3cc(C(F)F)cn3)ncn1)C2 [Example 9.56, (5′S,7a′R)-3-((6-(4-(difluoromethyl)-1H-pyrazol-1-yl)pyrimidin-4-yl)oxy)-5′-(3,5-difluorophenyl)tetrahydro-3′H-spiro[cyclobutane-1,2′-pyrrolo[2,1-b]oxazol]-3′-one]
EC50: 0.018 µM

Cc1nc2c(OC3CC4(C3)O[C@@H]3CC[C@@H](c5cc(F)cc(F)c5)N3C4=O)ncnc2s1 (stereo partly drawn) [Example 9.7, (5′S,7a′R)-5′-(3,5-difluorophenyl)-3-[(2-methyl[1,3]thiazolo[5,4-d]pyrimidin-7-yl)oxy]tetrahydro-3′H-spiro[cyclobutane-1,2′-pyrrolo[2,1-b][1,3]oxazol]-3′-one]
EC50: 0.201 µM

Cn1cc(C2CCC3OC4(CC(Oc5cc(C#N)ncn5)C4)C(=O)N32)cn1 (single isomer, unassigned) [Example 6.4, 6-((((1s or r),3R,5′(R or S),7a′R)-5′-(1-methyl-1H-pyrazol-4-yl)-3′-oxotetrahydro-3′H-spiro[cyclobutane-1,2′-pyrrolo[2,1-b]oxazol]-3-yl)oxy)pyrimidine-4-carbonitrile]
EC50: 2.83 µM

O=C1N2[C@@H](CC[C@H]2c2cc(F)cc(F)c2)O[C@]12C[C@H](Oc1cccc3ncnn13)C2 [Example 9.26, (1r,3R,5′S,7a′R)-5′-(3,5-difluorophenyl)-3-[([1,2,4]triazolo[1,5-a]pyridin-5-yl)oxy]tetrahydro-3′H-spiro[cyclobutane-1,2′-pyrrolo[2,1-b][1,3]oxazol]-3′-one]
EC50: 0.276 µM

O=C1N2C(CC[C@H]2c2cnccn2)OC12CC(OCc1cccc(Cn3ccnn3)c1)C2 (stereo partly drawn) [Example 18.26, (5′S)-5′-(pyrazin-2-yl)-3-({3-[(1H-1,2,3-triazol-1-yl)methyl]phenyl}methoxy) tetrahydro-3′H-spiro[cyclobutane-1,2′-pyrrolo[2,1-b][1,3]oxazol]-3′-one]
EC50: 0.034 µM

O=C1N2[C@@H](CC[C@H]2c2cc(F)cc(F)c2)OC12CC(Oc1ccc(F)cn1)C2 (stereo partly drawn) [Example 9.37, (5′S,7a′R)-5′-(3,5-difluorophenyl)-3-[(5-fluoropyridin-2-yl)oxy]tetrahydro-3′H-spiro[cyclobutane-1,2′-pyrrolo[2,1-b][1,3]oxazol]-3′-one]
EC50: 0.019 µM

Reference: patent publication US20250154173A1 (Merck Sharp & Dohme LLC, priority 2023, published 2025)
